# In patent US5731326A, “PDGF antagonists II” (ZymoGenetics, Inc., priority 1996, dated 1998):
# Key:
# [1] = target: T1, cell-surface PDGF receptors (Rattus norvegicus, UniProt Q05030); assay: Inhibition of 125I-PDGF-BB binding to rat SMCs; details: for 125I PDGF-BB Bound (CPM): specific cpm, nonspecific subtracted, negative control 10006
# T1 construct: endogenous in cells; host or cells: rat smooth muscle cells (SMCs), monolayer culture
# Experimental: NNC92-0270 was analyzed for the ability to inhibit ^125 I-PDGF-BB binding to monolayers of rat SMCs. To assay for inhibition of ^125 I-PDGF-BB binding to rat SMCs, the SMCs were plated at approximately 20,000 cells/well in 24-well culture dishes. The cells were used for assay 2-7 days after plating. The test compound was diluted in binding media (500 ml Ham's F-12 (Gibco BRL), 12 ml 1M Hepes pH 7.4, 5 ml 100×PSN (Gibco BRL), 1 gm rabbit serum albumin (Sigma Chemical Co., St. Louis, Mo.) to the concentrations shown in Table 2, then added to the SMCs (1 ml/well) in triplicate. To the wells was then added 50 μl of a ^125 I-PDGF-BB stock solution. Binding media alone was used as the negative control, and the addition of 200 ng/ml of PDGF-BB was used to determine nonspecific binding for ^125 I-PDGF-BB. The cells were incubated for approximately 11/2 hours at 4° C., then washed with binding media to remove unbound ligand. The cells were then incubated with extraction buffer (20 mM Tris-HCl, pH 8.0, 100 mM NaCl, 1 mM EDTA, 0.5% Nonident P-40, 0.5% sodium deoxycholate, 10 mM NaI, 1% bovine serum albumin), and the extracts were harvested and counted in a gamma counter. The data are presented as specific cpm bound for ^125 I-PDGF-BB. Nonspecific binding, determined by the addition of 200 ng/ml of unlabeled PDGF-BB, was 853 cpm, and has been subtracted from the data presented.
# PDGF = assay: SRE-luciferase antagonist assay, induction by PDGF; format: cell-based; details: Swiss-3T3, SWISS3T3 cells, 5 hours, approximate
# From the text: Initial characterization of NNC92-0270 as a non-peptide PDGF antagonist was made possible through an SRE-Luciferase high through-put assay system which involves selection of substances that are able to block expression of a serum response element (SRE)-luciferase reporter gene expressed in SWISS3T3 cells. […] The degree of antagonist specificity can be determined by comparing the resultant signal for the three growth factors (PDGF, bFGF and EGF). […]
# Following induction, luciferase activity was measured using a Promega luciferase assay kit (E1500; Promega Corp., Madison, Wis.) according to the assay kit protocol. […] The amount of luminescence (relative light units, RLU) was determined following a 1 second mix and a 1-3 integration of signal. Basal (uninduced) luciferase signal was subtracted from all measurements, and the luciferase signal induced by test samples was expressed as a percentage of the signal in the control. […]
# PMA = assay: SRE-luciferase antagonist assay, induction by PMA; format: cell-based; details: Swiss-3T3, SWISS3T3 cells, 5 hours, approximate
# T1 sequence (Q05030 32-1097): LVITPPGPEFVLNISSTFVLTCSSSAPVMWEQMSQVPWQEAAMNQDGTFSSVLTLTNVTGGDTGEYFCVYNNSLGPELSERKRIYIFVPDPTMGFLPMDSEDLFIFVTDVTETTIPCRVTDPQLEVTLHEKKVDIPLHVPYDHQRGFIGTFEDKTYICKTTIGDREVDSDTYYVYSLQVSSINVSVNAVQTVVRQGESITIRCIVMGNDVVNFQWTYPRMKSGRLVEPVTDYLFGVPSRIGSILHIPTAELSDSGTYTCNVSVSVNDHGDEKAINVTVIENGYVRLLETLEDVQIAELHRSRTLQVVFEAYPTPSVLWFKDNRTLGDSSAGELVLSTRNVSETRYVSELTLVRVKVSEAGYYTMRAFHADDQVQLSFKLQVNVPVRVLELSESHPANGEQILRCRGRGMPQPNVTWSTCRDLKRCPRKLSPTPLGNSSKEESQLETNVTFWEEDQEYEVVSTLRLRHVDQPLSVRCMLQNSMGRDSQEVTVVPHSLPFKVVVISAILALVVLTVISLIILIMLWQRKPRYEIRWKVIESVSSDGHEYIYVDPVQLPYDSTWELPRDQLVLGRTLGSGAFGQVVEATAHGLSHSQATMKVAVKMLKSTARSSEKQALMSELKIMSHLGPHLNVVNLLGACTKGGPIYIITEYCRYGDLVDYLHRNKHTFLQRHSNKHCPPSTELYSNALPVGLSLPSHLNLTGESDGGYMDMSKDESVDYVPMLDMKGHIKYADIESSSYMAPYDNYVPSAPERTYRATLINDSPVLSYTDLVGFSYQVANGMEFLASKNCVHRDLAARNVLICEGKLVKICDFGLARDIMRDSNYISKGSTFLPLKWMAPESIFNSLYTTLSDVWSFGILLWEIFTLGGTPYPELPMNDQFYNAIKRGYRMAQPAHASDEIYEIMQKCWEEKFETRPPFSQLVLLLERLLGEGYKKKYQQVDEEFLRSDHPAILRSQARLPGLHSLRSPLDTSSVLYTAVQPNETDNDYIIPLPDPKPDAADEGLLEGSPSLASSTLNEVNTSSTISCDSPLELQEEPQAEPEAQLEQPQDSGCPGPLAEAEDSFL
structure (smiles),measurement,setting,value
O=C(NN1CCCCC1)NS(=O)(=O)c1ccc(CCNC(=O)c2[nH]c3ccccc3c2OCc2ccccc2)cc1 [NNC92-0270],125I PDGF-BB Bound (CPM),[1]; 6.2 μM,5228 CPM
same,125I PDGF-BB Bound (CPM),[1]; 12.5 μM,2823 CPM
same,125I PDGF-BB Bound (CPM),[1]; 25 μM,920 CPM
same,125I PDGF-BB Bound (CPM),[1]; 50 μM,532 CPM
same,125I PDGF-BB Bound (CPM),[1]; 100 μM,378 CPM
same,remaining activity at 6.2 µM,"[1]; 1.5 h, 6.2 μM, read-out: % Control Binding",52%
same,remaining activity at 12.5 µM,"[1]; 1.5 h, 12.5 μM, read-out: % Control Binding",28%
same,remaining activity at 25 µM,"[1]; 1.5 h, 25 μM, read-out: % Control Binding",9%
same,remaining activity at 50 µM,"[1]; 1.5 h, 50 μM, read-out: % Control Binding",5%
same,remaining activity at 100 µM,"[1]; 1.5 h, 100 μM, read-out: % Control Binding",4%
same,Inhibition of PDGF-BB binding to cell-surface PDGF receptors (in words),[1]; rat SMCs,potent inhibitor
same,IC50,PDGF,13 µM
same,IC50,PMA,> 100 µM
